One series deals with T1, Glucocorticoid receptor (Homo sapiens, UniProt P04150).
T1 sequence (P04150 whole entry): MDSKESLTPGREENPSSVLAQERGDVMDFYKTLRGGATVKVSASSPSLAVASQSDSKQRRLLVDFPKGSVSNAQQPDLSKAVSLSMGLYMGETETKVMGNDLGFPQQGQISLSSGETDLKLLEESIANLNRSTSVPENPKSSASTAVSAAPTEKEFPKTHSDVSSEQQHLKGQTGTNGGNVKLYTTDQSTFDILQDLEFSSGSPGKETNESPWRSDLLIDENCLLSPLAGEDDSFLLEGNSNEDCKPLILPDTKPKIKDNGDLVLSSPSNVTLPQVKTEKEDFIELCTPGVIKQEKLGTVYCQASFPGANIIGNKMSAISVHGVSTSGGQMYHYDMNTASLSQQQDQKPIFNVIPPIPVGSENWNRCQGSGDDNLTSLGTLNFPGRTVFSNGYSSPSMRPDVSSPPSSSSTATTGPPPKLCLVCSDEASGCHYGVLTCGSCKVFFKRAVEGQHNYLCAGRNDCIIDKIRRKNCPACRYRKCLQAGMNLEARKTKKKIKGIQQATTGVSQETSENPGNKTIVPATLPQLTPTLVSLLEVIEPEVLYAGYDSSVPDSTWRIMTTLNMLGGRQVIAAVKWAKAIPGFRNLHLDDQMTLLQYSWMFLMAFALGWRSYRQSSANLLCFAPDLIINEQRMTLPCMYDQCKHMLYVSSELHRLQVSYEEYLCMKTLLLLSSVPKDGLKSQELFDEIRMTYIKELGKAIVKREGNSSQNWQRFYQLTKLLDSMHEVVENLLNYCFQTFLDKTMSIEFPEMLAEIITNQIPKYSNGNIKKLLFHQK
Briefly: Agonist activity at glucocorticoid receptor (unknown origin) incubated for 24 hrs by cell based microplate analysis.

Series [1] is described as follows: Retention time of the compound by HPLC analysis. Type of series: physicochemical.

In general, EC50 refers to the concentration giving half of the maximal effect. Higher therefore signals a less potent agent.

`CCN(C[C@@](O)(CNC(=O)c1cnn(-c2ccc(F)cc2)c1N)C(F)(F)F)C(=O)c1c(Cl)cccc1Cl`: on Glucocorticoid receptor, the EC50 is 2 nM. This molecule also registered a Retention_time in series [1] of 2.337 min.
In the case of `CCN(C[C@](O)(CNC(=O)c1cnn(-c2ccc(F)cc2)c1N)C(F)(F)F)C(=O)c1c(Cl)cccc1Cl`, the Retention_time in series [1] was determined as 3.06 min.
Turning to `CCN(C[C@@](O)(CNC(=O)c1cnn(-c2ccc(F)cc2)c1N)C(F)(F)F)C(=O)c1c(F)cccc1Cl`, the half-maximal effective concentration (EC50) on Glucocorticoid receptor was 2 nM. The Retention_time in series [1] was 2.979 min.
`CCN(C[C@@](O)(CNC(=O)c1cnn(-c2ccc(F)cc2)c1N)C(F)(F)F)C(=O)c1c(C)cccc1F` had a Retention_time in series [1] of 2.279 min.
At Glucocorticoid receptor, `CCN(C[C@@](O)(CNC(=O)c1cnn(-c2ccc(F)cc2)c1N)C(F)(F)F)C(=O)c1c(F)cccc1F` returned an EC50 of 5 nM. In series [1], this molecule came in with a Retention_time of 2.228 min.
In the same order, the values of `CCc1ccccc1C(=O)N(CC)C[C@@](O)(CNC(=O)c1cnn(-c2ccc(F)cc2)c1N)C(F)(F)F` are 4 nM and 2.353 min.
In series [1], `CCN(C[C@@](O)(CNC(=O)c1cnn(-c2ccc(F)cc2)c1N)C(F)(F)F)C(=O)c1ccccc1C` displayed a Retention_time of 2.179 min.
On to `CCN(C[C@@](O)(CNC(=O)c1cnn(-c2ccc(F)cc2)c1N)C(F)(F)F)C(=O)c1ccccc1Cl`, for which the Retention_time in series [1] turned out to be 2.238 min.
The molecule `CCN(C[C@@](O)(CNC(=O)c1cnn(-c2ccc(F)cc2)c1N)C(F)(F)F)C(=O)c1c(C)cccc1C` had a Retention_time in series [1] of 2.349 min.
In turn, `CCN(C[C@@](O)(CNC(=O)c1cnn(-c2ccc(F)cc2)c1N)C(F)(F)F)C(=O)c1ccccc1F` registered a concentration giving a half-maximal response (EC50) on Glucocorticoid receptor of 26 nM. This molecule registered a Retention_time in series [1] of 2.249 min.
Taken in the same sequence, the figures for `CCc1cccc(CC)c1C(=O)N(CC)C[C@@](O)(CNC(=O)c1cnn(-c2ccc(F)cc2)c1N)C(F)(F)F` were 122 nM and 2.544 min.
In the same order, the values of `CCN(C[C@@](O)(CNC(=O)c1cnn(-c2ccc(F)cc2)c1N)C(F)(F)F)C(=O)c1ccccc1` are 78 nM and 2.163 min.
In the same order, the values of `CCN(C[C@@](O)(CNC(=O)c1cnn(-c2ccc(F)cc2)c1N)C(F)(F)F)C(=O)c1c(C)cccc1Cl` (stereo in doubt; 10a) are 2 nM and 2.314 min.
At Glucocorticoid receptor, `CCN(C[C@@](O)(CNC(=O)c1cnn(-c2ccc(F)cc2)c1N)C(F)(F)F)C(=O)c1c(C)cccc1Cl` (stereo in doubt; 10b) returned a half-maximal effective concentration (EC50) of 4 nM. This molecule gave a Retention_time in series [1] of 2.36 min.
For `CCc1cccc(C)c1C(=O)N(CC)C[C@@](O)(CNC(=O)c1cnn(-c2ccc(F)cc2)c1N)C(F)(F)F` (stereo in doubt; 13a), the Retention_time in series [1] was determined as 2.394 min.
Same read-out and setting: with `CCc1cccc(C)c1C(=O)N(CC)C[C@@](O)(CNC(=O)c1cnn(-c2ccc(F)cc2)c1N)C(F)(F)F` (stereo in doubt; 13b) the figure was 2.417 min.
`CCc1cccc(Cl)c1C(=O)N(CC)C[C@@](O)(CNC(=O)c1cnn(-c2ccc(F)cc2)c1N)C(F)(F)F` (stereo in doubt; 14a) yielded an EC50 at Glucocorticoid receptor of 9 nM. Moreover, in series [1], the Retention_time came out at 2.39 min.
In the same order, the values of `CCc1cccc(Cl)c1C(=O)N(CC)C[C@@](O)(CNC(=O)c1cnn(-c2ccc(F)cc2)c1N)C(F)(F)F` (stereo in doubt; 14b) are 0.5 nM and 2.396 min.

For the origin of these results see ChEMBL document CHEMBL5550198, “Impact of atropisomerism on a non-steroidal glucocorticoid receptor agonist” (RSC Med Chem, 2024).
